Biological target: ATP-dependent translocase ABCB1 (Homo sapiens, UniProt P08183)
Assay: TP_TRANSPORTER: transepithelial transport (basal to apical) in MDR1-expressing MDCK cells
Format: functional, cell-based
Conditions: dog

Sequence of ATP-dependent translocase ABCB1 (P08183 whole entry): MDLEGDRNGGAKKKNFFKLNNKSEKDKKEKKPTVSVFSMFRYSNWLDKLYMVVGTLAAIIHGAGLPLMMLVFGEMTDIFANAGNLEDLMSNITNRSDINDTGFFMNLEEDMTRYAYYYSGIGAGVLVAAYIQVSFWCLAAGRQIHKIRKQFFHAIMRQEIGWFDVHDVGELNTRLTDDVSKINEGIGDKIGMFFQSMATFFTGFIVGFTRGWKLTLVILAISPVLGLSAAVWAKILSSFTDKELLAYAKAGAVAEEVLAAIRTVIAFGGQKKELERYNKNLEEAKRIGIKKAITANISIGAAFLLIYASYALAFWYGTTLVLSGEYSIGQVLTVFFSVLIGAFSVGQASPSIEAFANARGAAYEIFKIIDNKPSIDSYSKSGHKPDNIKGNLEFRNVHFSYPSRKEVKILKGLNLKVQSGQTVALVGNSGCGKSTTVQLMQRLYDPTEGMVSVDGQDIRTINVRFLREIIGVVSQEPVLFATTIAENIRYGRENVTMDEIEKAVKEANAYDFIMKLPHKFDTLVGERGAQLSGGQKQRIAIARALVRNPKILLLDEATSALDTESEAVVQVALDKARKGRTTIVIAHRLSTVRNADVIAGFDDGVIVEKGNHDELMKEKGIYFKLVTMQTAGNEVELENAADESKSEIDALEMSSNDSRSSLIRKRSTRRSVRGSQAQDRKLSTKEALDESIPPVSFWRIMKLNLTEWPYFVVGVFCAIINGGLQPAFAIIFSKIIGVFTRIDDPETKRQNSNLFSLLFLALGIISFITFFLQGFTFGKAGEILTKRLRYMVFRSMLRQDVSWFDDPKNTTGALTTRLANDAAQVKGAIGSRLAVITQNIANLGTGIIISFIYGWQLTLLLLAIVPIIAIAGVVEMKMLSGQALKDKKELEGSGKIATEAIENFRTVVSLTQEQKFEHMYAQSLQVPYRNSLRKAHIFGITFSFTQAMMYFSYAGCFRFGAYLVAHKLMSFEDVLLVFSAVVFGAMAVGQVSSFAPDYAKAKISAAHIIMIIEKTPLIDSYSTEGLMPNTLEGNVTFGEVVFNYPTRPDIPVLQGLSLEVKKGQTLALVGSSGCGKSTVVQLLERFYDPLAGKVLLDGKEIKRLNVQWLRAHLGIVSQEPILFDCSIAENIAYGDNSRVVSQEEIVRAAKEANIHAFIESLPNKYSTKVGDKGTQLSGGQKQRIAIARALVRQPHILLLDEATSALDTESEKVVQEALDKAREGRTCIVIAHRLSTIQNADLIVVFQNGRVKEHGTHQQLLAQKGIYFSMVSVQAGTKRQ

Activity	Compound
substrate [+]	C[C@H]1O[C@@H](O[C@H]2[C@@H](O)C[C@H](O[C@H]3[C@@H](O)C[C@H](O[C@H]4CC[C@@]5(C)[C@H](CC[C@@H]6[C@@H]5C[C@@H](O)[C@]5(C)[C@@H](C7=CC(=O)OC7)CC[C@]65O)C4)O[C@@H]3C)O[C@@H]2C)C[C@H](O)[C@@H]1O [DIGOXIN]
substrate [+]	CC(C)(C(=O)O)c1ccc(C(O)CCCN2CCC(C(O)(c3ccccc3)c3ccccc3)CC2)cc1 (configuration not stated) [FEXOFENADINE]

— ChEMBL document CHEMBL2074190, “Grapefruit juice activates P-glycoprotein-mediated drug transport” (Pharm Res, 1999)
